This note sets out measurements from patent US20120029015A1, “Novel medical use of kynurenic acid, its precursors and derivatives” (priority 2009, published 2012).

The structures appear in SMILES notation. Marks after values point to notes of the source that are not given here.

Common to all, as to assay type: in vivo, Wistar rats
Assay [1] concerns caerulein-induced destruction of pancreatic tissue (DPT). Briefly: Antioxidant capacity of plasma (FRAP) in caerulein-induced DPT. Conditions: KYNA 100 mg/kg/hr + caerulein, mean. The procedure: (§1) The experiments were performed using adult male Wistar rats. All experimental procedures were in compliance with currently accepted guidelines for care and use of animals. The study protocol was approved by the Bioethics Committee. Before the experiment, rats were given no food for 24 hours, water was available in unrestricted quantities. Destruction of pancreatic tissue (DPT) was induced by injections of caerulein (dose of 15 μg/kg/hr). Animals were randomly assigned to the following groups. […] After 6 hours from inducing DPT antioxidative effects were determined by means of measuring the ferric reducing ability of plasma (FRAP) and levels of the markers of oxidative stress: malonyldialdehyde and 4-hydroxynonenals (MDA+4-HNE). The measurement of pancreatic edema, the serum α-amylase activity and histopathological analysis of pancreas were carried out to assess the progress of the disease.

For assay [2] the test system is unchanged. Briefly: Water content of pancreatic tissue (pancreatic edema) in caerulein-induced destruction of pancreatic tissue. As to conditions: for Water content of pancreas: 6 hours after inducing DPT, % of wet weight, mean. The procedure:
as §1, with “disease. […] Kynurenic acid in the dose of 50 mg/kg/hrs was also effective (Table 1). Since kynurenic acid prevents edema induced by the pancreas damaging factor caerulein, kynurenic acid, its salts and derivatives may be used in prevention and therapy of conditions leading to injury of pancreatic tissue.” for “disease.”

The test system is the same in assay [3]. Briefly: Serum α-amylase activity in caerulein-induced DPT. As to conditions: mean. The procedure: as §1, with “disease. The extent of the serum α-amylase elevation is roughly proportional to the degree of destruction of pancreatic tissue. In Table 3 it is shown that kynurenic acid in the dose of 100 mg/kg/hr prevents elevation of α-amylase in the serum of caerulein-treated rats. Kynurenic acid in the dose of 50 mg/kg/hrs was also effective. […]” for “disease.”

Assay [4] shares this test system. As to the kind of experiment: Histological changes in pancreatic tissue in caerulein-induced DPT. As to conditions: KYNA 100 mg/kg/hr + caerulein; mean ± SD; scale 0-3. How it is done: as §1, with “disease. Histopathological presentation of pancreas injury consists of edema, vacuolization or necrosis (Table 2). Since in the situation of application of a pancreas damaging agent caerulein kynurenic acid in the dose of 100 mg/kg/hr prevents or diminishes edema, vacuolization, and number of necrotic foci, kynurenic acid, its salts and derivatives may be of use in prevention and therapy of conditions leading to destruction of pancreatic tissue and are characterized by such histological picture.” for “disease.”

For assay [5] the test system is unchanged. As to the kind of experiment: Plasma levels of lipid peroxidation products (MDA + 4-HNE) in caerulein-induced DPT. Conditions: KYNA 100 mg/kg/hr + caerulein, mean. How it is done: as §1, with “disease. In the group of animals with caerulein-induced destruction of pancreatic tissue significant increase of concentration of malonyldialdehyde (MDA) and 4-hydroxynonenals (4-HNE), two markers of oxidative stress, occurred.” for “disease.”

Turning to `O=C(O)c1cc(O)c2ccccc2n1` [KYNA, kynurenic acid], the “FRAP (Ferric Reducing Ability of Plasma)” value in assay [1] is recorded as 602.4* μM. Further, the “Water content of pancreas” value in assay [2] (KYNA 50 mg/kg/hr infusion + caerulein) is on record as 73.03* %. In assay [2] (KYNA 100 mg/kg/hr infusion + caerulein), the “Water content of pancreas” value is given as 68.22* %. For the same compound, the “Macroscopic edema of pancreas” value in assay [2] (KYNA 100 mg/kg/hr infusion + caerulein, macroscopic presentation) is listed as “no edema was noted”. Besides, the “Serum α-amylase activity” value in assay [3] (KYNA 50 mg/kg/hr + caerulein) is listed as 5262.26^#* U/l. Moreover, the “Serum α-amylase activity” value in assay [3] (KYNA 100 mg/kg/hr + caerulein) was 3495.20* U/l. Moreover, in assay [4], the “Edema (0-3), histological score” value is 1.6 ± 0.45; the “Necrosis (0-3), histological score” value is on record as 0.0 ± 0.0; the “Vacuolisation (0-3), histological score” value was 0.8 ± 0.44. The “MDA + 4-HNE plasma level” value in assay [5] was 3.11* nmol/ml.
